How the values were obtained:
Assay type in all cases: in vivo
Digitaria sanguinalis = assay: Effectivity testing against weed plants ex. 5.3, in bermuda grass turf, Abbott %; settings: 200.0 g a.i./ha
Source text: (§1) A co-formulation containing a mixture compounds no. […] Granules were applied with a shaker can.
(§2) Location: Sports turf, North Carolina, USA
(§3) Plot size: 1.4 m^2 and 3 replicates per treatment
(§4) Application timing: 27 Mar. 2007, spring application, early post for the weed
(§5) Effectivity was rated in percent (%) herbicidal effect compared with untreated control according to the method of Abbott mentioned above (see 5.1). 100% efficacy means full control; 0% efficacy means no control of the weed; all ratings above 80% are usually acceptable.
(§6) The application and evaluation were performed as described in example 5.2 with the following difference:
(§7) Turf grass species: Cynodon dactylon, variety (bermuda grass)
(§8) Weed species: Digitaria sanguinalis, Poa annua

Poa annua = assay: as above; settings: 210 DAT
Source text: as §1, §2, §3, §4, §5, §6, §7, §8

Taraxacum officinalis = assay: Greenhouse herbicidal effect in weed control ex. 6.2, 1- to 2-leaves stage; settings: 6 g a.i./ha
Source text: That means, when applying the combinations according to the invention, herbicidal effects are observed on a harmful plant species which exceed the formal total of the effects of the herbicides present when these are applied by themselves. Alternatively, it is observed in some cases that a lower application rate is required for the herbicide combination in order to achieve the same effect on a harmful plant species in comparison with the individual products.
When the data observed already exceed the formal total (=E^A) of the data in the experiments with individual applications, they likewise exceed the expected value according to Colby, which is calculated using the formula below and is likewise regarded as an indication of synergism (cf. S. R. Colby; in Weeds 15 (1967) pp. 20 to 22): E=A+B−(A·B/100)
In this formula: • A=action of active compound (A) in % at an application rate of a g of AS/ha; • B=action of active compound (B) in % at an application rate of b g of AS/ha; • E=expected value of the action of the combination (A)+(B) in % at the combined application rate a+b g of AS/ha.
The data observed in the experiments show, at suitably low dosages, an action of the combinations which exceeds the expected values according to Colby (=E^C).

[1] = test system: Cynodon dactylon (Bermuda grass); assay: Phytotoxicity of the turf ex. 5.1, % injury vs untreated; settings: 157 DAT
Source text: (§9) Each plot was divided by different pre-treatments 1 week before application of the trial treatments: • A) Pre-treatment with glyphosate-isopropylammonium allowing to evaluate in this section the pre-emergence effect against weeds. • B) No pre-treatment, present winter annual weeds are received a post-emergence application.
(§10) 2005, applied on dormant turf in winter
Additionally, phytotoxicity of the turf was rated as percent (%) injury compared with untreated control.

Stellaria media = assay: Effectivity testing against weed plants ex. 5.1, Abbott %
Source text: as §9, §10
as §5, with “according to the formula [(X−Y)/X]100 where X is the absolute level/scoring of the control plants, Y is the level/scoring of the treated plants.” for “mentioned above (see 5.1).”

Aphanes arvensis = assay: as above; settings: 151 DAT
Source text: as §9, §10
as §5, with “according to the formula [(X−Y)/X]100 where X is the absolute level/scoring of the control plants, Y is the level/scoring of the treated plants.” for “mentioned above (see 5.1).”

Veronica arvensis = assay: as above
Source text: as §9, §10
as §5, with “according to the formula [(X−Y)/X]100 where X is the absolute level/scoring of the control plants, Y is the level/scoring of the treated plants.” for “mentioned above (see 5.1).”

In the case of Cc1ccc2c(c1)[C@H](Nc1nc(N)nc([C@@H](C)F)n1)[C@@H](C)C2 (stereo in doubt) [(A21)/(A22), indaziflam], the “Herbicidal effect (%) on Digitaria sanguinalis” value (Digitaria sanguinalis; 138 DAT) is reported as 100%, the “Herbicidal effect (%) on Digitaria sanguinalis” value (Digitaria sanguinalis; 180 DAT) is reported as 100% and the “Herbicidal effect (%) on Poa annua” value (Poa annua; 12.5 g a.i./ha) is reported as 70%. The “Herbicidal effect (%) on Poa annua” value (Poa annua; 25.0 g a.i./ha) was 97%, the “Herbicidal effect (%) on Poa annua” value (Poa annua; 50.0 g a.i./ha) was 100% and the “Herbicidal effect (%) on Poa annua” value (Poa annua; 100.0 g a.i./ha) was 100%. The “Herbicidal effect (%) on Poa annua” value (Poa annua; 200.0 g a.i./ha) was 100%, the “Herbicidal effect (%) 7 DAT on Taraxacum officinalis” value (Taraxacum officinalis) was 20% and the “Phytotoxicity (%) on Turf” value ([1]; 25 g a.i./ha, section with glyphosate pre-treatment (Table 20)) was 0%. For the same compound, the “Phytotoxicity (%) on Turf” value ([1]; 25 g a.i./ha, section without pre-treatment (Table 21)) was 0%, the “Phytotoxicity (%) on Turf” value ([1]; 50 g a.i./ha, section with glyphosate pre-treatment (Table 20)) was 0% and the “Phytotoxicity (%) on Turf” value ([1]; 50 g a.i./ha, section without pre-treatment (Table 21)) was 0%. The “Phytotoxicity (%) on Turf” value ([1]; 75 g a.i./ha, section with glyphosate pre-treatment (Table 20)) was 0%, the “Phytotoxicity (%) on Turf” value ([1]; 75 g a.i./ha, section without pre-treatment (Table 21)) was 0% and the “Herbicidal effect (%) on Stellaria media, Post-emergence application without pre-treatment” value (Stellaria media; 25 g a.i./ha, 124 DAT) was 100%. The “Herbicidal effect (%) on Stellaria media, Pre-emergence application after pre-treatment” value (Stellaria media; 25 g a.i./ha, 124 DAT) was 75%, the “Herbicidal effect (%) on Stellaria media, Post-emergence application without pre-treatment” value (Stellaria media; 25 g a.i./ha, 151 DAT) was 100% and the “Herbicidal effect (%) on Stellaria media, Pre-emergence application after pre-treatment” value (Stellaria media; 25 g a.i./ha, 151 DAT) was 71%. For the same compound, the “Herbicidal effect (%) on Stellaria media, Post-emergence application without pre-treatment” value (Stellaria media; 50 g a.i./ha, 124 DAT) was 100%, the “Herbicidal effect (%) on Stellaria media, Pre-emergence application after pre-treatment” value (Stellaria media; 50 g a.i./ha, 124 DAT) was 100% and the “Herbicidal effect (%) on Stellaria media, Post-emergence application without pre-treatment” value (Stellaria media; 50 g a.i./ha, 151 DAT) was 100%. For the same compound, the “Herbicidal effect (%) on Stellaria media, Pre-emergence application after pre-treatment” value (Stellaria media; 50 g a.i./ha, 151 DAT) was 100%, the “Herbicidal effect (%) on Stellaria media, Post-emergence application without pre-treatment” value (Stellaria media; 75 g a.i./ha, 124 DAT) was 100% and the “Herbicidal effect (%) on Stellaria media, Pre-emergence application after pre-treatment” value (Stellaria media; 75 g a.i./ha, 124 DAT) was 100%. The “Herbicidal effect (%) on Stellaria media, Post-emergence application without pre-treatment” value (Stellaria media; 75 g a.i./ha, 151 DAT) was 100%, the “Herbicidal effect (%) on Stellaria media, Pre-emergence application after pre-treatment” value (Stellaria media; 75 g a.i./ha, 151 DAT) was 100% and the “Herbicidal effect (%) on Aphanes arvensis, Post-emergence application without pre-treatment” value (Aphanes arvensis; 25 g a.i./ha) was 100%. For the same compound, the “Herbicidal effect (%) on Aphanes arvensis, Pre-emergence application after pre-treatment” value (Aphanes arvensis; 25 g a.i./ha) was 50%, the “Herbicidal effect (%) on Aphanes arvensis, Post-emergence application without pre-treatment” value (Aphanes arvensis; 50 g a.i./ha) was 33% and the “Herbicidal effect (%) on Aphanes arvensis, Pre-emergence application after pre-treatment” value (Aphanes arvensis; 50 g a.i./ha) was 100%. For the same compound, the “Herbicidal effect (%) on Aphanes arvensis, Post-emergence application without pre-treatment” value (Aphanes arvensis; 75 g a.i./ha) was 100%, the “Herbicidal effect (%) on Aphanes arvensis, Pre-emergence application after pre-treatment” value (Aphanes arvensis; 75 g a.i./ha) was 100% and the “Herbicidal effect (%) on Veronica arvensis, Post-emergence application without pre-treatment” value (Veronica arvensis; 25 g a.i./ha, 123 DAT) was 100%. For the same compound, the “Herbicidal effect (%) on Veronica arvensis, Pre-emergence application after pre-treatment” value (Veronica arvensis; 25 g a.i./ha, 123 DAT) was 81%, the “Herbicidal effect (%) on Veronica arvensis, Post-emergence application without pre-treatment” value (Veronica arvensis; 25 g a.i./ha, 157 DAT) was 94% and the “Herbicidal effect (%) on Veronica arvensis, Pre-emergence application after pre-treatment” value (Veronica arvensis; 25 g a.i./ha, 157 DAT) was 100%. For the same compound, the “Herbicidal effect (%) on Veronica arvensis, Post-emergence application without pre-treatment” value (Veronica arvensis; 50 g a.i./ha, 123 DAT) was 75%, the “Herbicidal effect (%) on Veronica arvensis, Pre-emergence application after pre-treatment” value (Veronica arvensis; 50 g a.i./ha, 123 DAT) was 100% and the “Herbicidal effect (%) on Veronica arvensis, Post-emergence application without pre-treatment” value (Veronica arvensis; 50 g a.i./ha, 157 DAT) was 100%. For the same compound, the “Herbicidal effect (%) on Veronica arvensis, Pre-emergence application after pre-treatment” value (Veronica arvensis; 50 g a.i./ha, 157 DAT) was 100%, the “Herbicidal effect (%) on Veronica arvensis, Post-emergence application without pre-treatment” value (Veronica arvensis; 75 g a.i./ha, 123 DAT) was 100% and the “Herbicidal effect (%) on Veronica arvensis, Pre-emergence application after pre-treatment” value (Veronica arvensis; 75 g a.i./ha, 123 DAT) was 100%. For the same compound, the “Herbicidal effect (%) on Veronica arvensis, Post-emergence application without pre-treatment” value (Veronica arvensis; 75 g a.i./ha, 157 DAT) was 100% and the “Herbicidal effect (%) on Veronica arvensis, Pre-emergence application after pre-treatment” value (Veronica arvensis; 75 g a.i./ha, 157 DAT) was 100%.

Reference: patent US8426342B2, “Method for weed control in lawn” (priority 2008, dated 2013)
